Earlier results, collected in patent US20210315248A1, “SYSTEM AND METHOD FOR HOVENIA DULCIS EXTRACTION” (82 Labs Inc., priority 2020, published 2021).

Assays:
[1] = set-up: key: ability to form inclusion complexes, as indicated by a “+”; settings: guest molecule with β-cyclodextrin
[2] = set-up: key: ability to form inclusion complexes, as indicated by a “+”; settings: guest molecule with α-cyclodextrin
[3] = set-up: key: ability to form inclusion complexes, as indicated by a “+”; settings: guest molecule with γ-cyclodextrin
[4] = not given; remark: listed apart in the source

CCCC(=O)O [Butyric acid]
ability to form inclusion complexes with β-CD [1]: + | ability to form inclusion complexes with α-CD [2]: +

c1ccc2cc3ccccc3cc2c1 [Anthracene]
ability to form inclusion complexes with γ-CD [3]: +

OC[C@H]1O[C@@H]2O[C@H]3[C@H](O)[C@@H](O)[C@@H](O[C@H]4[C@H](O)[C@@H](O)[C@@H](O[C@H]5[C@H](O)[C@@H](O)[C@@H](O[C@H]6[C@H](O)[C@@H](O)[C@@H](O[C@H]7[C@H](O)[C@@H](O)[C@@H](O[C@H]1[C@H](O)[C@H]2O)O[C@@H]7CO)O[C@@H]6CO)O[C@@H]5CO)O[C@@H]4CO)O[C@@H]3CO [α-Cyclodextrin, α-cyclodextrin]
pKa value (25° C.): 12.331

CCC(=O)O [Propionic acid]
ability to form inclusion complexes with α-CD [2]: +

C1CCCCC1 [Cyclohexane]
ability to form inclusion complexes with γ-CD [3]: + | ability to form inclusion complexes with β-CD [1]: + | ability to form inclusion complexes with α-CD [2]: +

O=C1c2c(O)cc(O)cc2O[C@H](c2cc(O)c(O)c(O)c2)[C@H]1O [DHM, (2R,3R)-3,5,7-trihydroxy-2-(3,4,5-trihydroxyphenyl)-2,3-dihydrochromen-4-one]
permeability Peff [4]: (1.84±0.37)×10^−6 cm/s

[Xe] [Xenon]
ability to form inclusion complexes with α-CD [2]: +

c1ccc2ccccc2c1 [Naphthalene]
ability to form inclusion complexes with γ-CD [3]: + | ability to form inclusion complexes with β-CD [1]: +
